Values after ≈ are worked out from the molar mass of the structure shown. Where two headings read alike, the source gives them in different places.
What was measured:
Assay in all cases: Antimicrobial susceptibility test of clinical isolated strains
Assay type in all cases: cell-based
[1] = system: Escherichia coli QY; details: for Antimicrobial susceptibility test result (category): according to CLSI 2015 guidelines
Description: (§1) Table S1. Antimicrobial susceptibility test of clinical isolated strains used in this study (MIC, μg/mL).
(§2) 1Antimicrobial susceptibility test results were determined according to CLSI 2015 guidelines, where "R" stands for drug resistance,
(§3) "I" stands for intermediate, "S" stands for susceptible. […]

[2] = system: Escherichia coli S1N1; details: for Antimicrobial susceptibility test result (category): according to CLSI 2015 guidelines
Description: as §1, §2, §3

[3] = system: Escherichia coli SN5; details: for Antimicrobial susceptibility test result (category): according to CLSI 2015 guidelines
Description: as §1, §2, §3

[4] = system: Escherichia coli w122; details: for Antimicrobial susceptibility test result (category): according to CLSI 2015 guidelines
Description: as §1, §2, §3

[5] = system: Escherichia coli w123; details: for Antimicrobial susceptibility test result (category): according to CLSI 2015 guidelines
Description: as §1, §2, §3

[6] = system: Methicillin-resistant Staphylococcus aureus HP; details: for MIC: Staphylococcus aureus, antibiotic susceptibility, CLSI 2015 guidelines; for Antimicrobial susceptibility test result (category): according to CLSI 2015 guidelines
Description: as §1, §2, §3

[7] = system: Shigella flexneri QY1; details: for Antimicrobial susceptibility test result (category): according to CLSI 2015 guidelines
Description: as §1, §2, §3

[8] = system: Escherichia coli w124; details: for Antimicrobial susceptibility test result (category): according to CLSI 2015 guidelines
Description: as §1, §3

[9] = system: Escherichia coli w136; details: for Antimicrobial susceptibility test result (category): according to CLSI 2015 guidelines
Description: as §1, §3

[10] = Escherichia coli, antibiotic susceptibility, CLSI 2015 guidelines, read-out: MIC
[11] = Escherichia coli, S1N1, antibiotic susceptibility, CLSI 2015 guidelines, read-out: MIC
[12] = Escherichia coli, SN5, antibiotic susceptibility, CLSI 2015 guidelines, read-out: MIC
[13] = Escherichia coli, W122, antibiotic susceptibility, CLSI 2015 guidelines, read-out: MIC
[14] = Escherichia coli, W123, antibiotic susceptibility, CLSI 2015 guidelines, read-out: MIC
[15] = Escherichia coli, W124, antibiotic susceptibility, CLSI 2015 guidelines, read-out: MIC
[16] = Escherichia coli, W136, antibiotic susceptibility, CLSI 2015 guidelines, read-out: MIC
[17] = antibiotic susceptibility, CLSI 2015 guidelines

Compound: CC[C@H]1OC(=O)[C@H](C)[C@@H](O[C@H]2C[C@@](C)(OC)[C@@H](O)[C@H](C)O2)[C@H](C)[C@@H](O[C@@H]2O[C@H](C)C[C@H](N(C)C)[C@H]2O)[C@](C)(O)C[C@@H](C)CN(C)[C@H](C)[C@@H](O)[C@]1(C)O [Azithromycin]
- MIC [1, 10]: 8 µg/mL (≈ 10.7 µM)
- Antimicrobial susceptibility test result (category) [1]: S
- MIC [2, 11]: 4 µg/mL (≈ 5.34 µM)
- Antimicrobial susceptibility test result (category) [2]: S
- MIC [3, 12]: 4 µg/mL (≈ 5.34 µM)
- Antimicrobial susceptibility test result (category) [3]: S
- MIC [4, 13]: 4 µg/mL (≈ 5.34 µM)
- Antimicrobial susceptibility test result (category) [4]: S
- MIC [5, 14]: 4 µg/mL (≈ 5.34 µM)
- Antimicrobial susceptibility test result (category) [5]: S
- MIC [6]: 1 µg/mL (≈ 1.34 µM)
- Antimicrobial susceptibility test result (category) [6]: S
- MIC ([7]; Shigella flexneri, QY1): 64 µg/mL (≈ 85.4 µM)
- Antimicrobial susceptibility test result (category) [7]: R
- MIC [8, 15]: 4 µg/mL (≈ 5.34 µM)
- Antimicrobial susceptibility test result (category) [8]: S
- MIC [9, 16]: 2 µg/mL (≈ 2.67 µM)
- Antimicrobial susceptibility test result (category) [9]: S

Compound: CO/N=C(\C(=O)N[C@@H]1C(=O)N2C(C(=O)O)=C(CSc3nc(=O)c(=O)[nH]n3C)CS[C@H]12)c1csc(N)n1 [Ceftriaxone]
- MIC [1, 10]: 64 µg/mL (≈ 115 µM)
- Antimicrobial susceptibility test result (category) [1]: R
- MIC [2, 11]: 16 µg/mL (≈ 28.9 µM)
- Antimicrobial susceptibility test result (category) [2]: R
- MIC [3, 12]: 16 µg/mL (≈ 28.9 µM)
- Antimicrobial susceptibility test result (category) [3]: R
- MIC [4, 13]: 32 µg/mL (≈ 57.7 µM)
- Antimicrobial susceptibility test result (category) [4]: R
- MIC [5, 14]: 32 µg/mL (≈ 57.7 µM)
- Antimicrobial susceptibility test result (category) [5]: R
- MIC ([7]; Shigella flexneri, QY1): 4 µg/mL (≈ 7.21 µM)
- Antimicrobial susceptibility test result (category) [7]: R
- MIC [8, 15]: 4 µg/mL (≈ 7.21 µM)
- Antimicrobial susceptibility test result (category) [8]: R
- MIC [9, 16]: 0.06 µg/mL (≈ 0.108 µM)
- Antimicrobial susceptibility test result (category) [9]: S

Compound: CS(=O)(=O)c1ccc([C@@H](O)[C@@H](CF)NC(=O)C(Cl)Cl)cc1 [Florfenicol]
- MIC [1, 10]: 128 µg/mL (≈ 357 µM)
- Antimicrobial susceptibility test result (category) [1]: R
- MIC [2, 11]: 2 µg/mL (≈ 5.58 µM)
- Antimicrobial susceptibility test result (category) [2]: S
- MIC [3, 12]: 4 µg/mL (≈ 11.2 µM)
- Antimicrobial susceptibility test result (category) [3]: S
- MIC [4, 13]: 128 µg/mL (≈ 357 µM)
- Antimicrobial susceptibility test result (category) [4]: R
- MIC [5, 14]: 128 µg/mL (≈ 357 µM)
- Antimicrobial susceptibility test result (category) [5]: R
- MIC ([7]; Shigella flexneri, QY1): 2 µg/mL (≈ 5.58 µM)
- Antimicrobial susceptibility test result (category) [7]: S
- MIC [8, 15]: 128 µg/mL (≈ 357 µM)
- Antimicrobial susceptibility test result (category) [8]: R
- MIC [9, 16]: 128 µg/mL (≈ 357 µM)
- Antimicrobial susceptibility test result (category) [9]: R

Compound: CNC(C)C1CCC(N)C(OC2C(N)CC(N)C(OC3OCC(C)(O)C(NC)C3O)C2O)O1 (stereo not shown) [Gentamicin]
- MIC [1, 10]: > 512 µg/mL
- Antimicrobial susceptibility test result (category) [1]: R
- MIC [2, 11]: < 0.03 µg/mL
- Antimicrobial susceptibility test result (category) [2]: S
- MIC [3, 12]: < 0.03 µg/mL
- Antimicrobial susceptibility test result (category) [3]: S
- MIC [4, 13]: 1 µg/mL (≈ 2.09 µM)
- Antimicrobial susceptibility test result (category) [4]: S
- MIC [5, 14]: 1 µg/mL (≈ 2.09 µM)
- Antimicrobial susceptibility test result (category) [5]: S
- MIC [6]: 16 µg/mL (≈ 33.5 µM)
- Antimicrobial susceptibility test result (category) [6]: R
- MIC ([7]; Shigella flexneri, QY1): 1 µg/mL (≈ 2.09 µM)
- Antimicrobial susceptibility test result (category) [7]: S
- MIC [8, 15]: 8 µg/mL (≈ 16.8 µM)
- Antimicrobial susceptibility test result (category) [8]: I
- MIC [9, 16]: 8 µg/mL (≈ 16.8 µM)
- Antimicrobial susceptibility test result (category) [9]: I

Compound: CO[C@H]1/C=C/O[C@@]2(C)Oc3c(C)c(O)c4c(O)c(c(/C=N/N5CCN(C)CC5)c(O)c4c3C2=O)NC(=O)/C(C)=C\C=C\[C@H](C)[C@H](O)[C@@H](C)[C@@H](O)[C@@H](C)[C@H](OC(C)=O)[C@@H]1C [Rifampicin]
- MIC [1, 10]: 4 µg/mL (≈ 4.86 µM)
- Antimicrobial susceptibility test result (category) [1]: S
- MIC [2, 11]: 2 µg/mL (≈ 2.43 µM)
- Antimicrobial susceptibility test result (category) [2]: S
- MIC [3, 12]: 1 µg/mL (≈ 1.22 µM)
- Antimicrobial susceptibility test result (category) [3]: S
- MIC [4, 13]: 4 µg/mL (≈ 4.86 µM)
- Antimicrobial susceptibility test result (category) [4]: S
- MIC [5, 14]: 4 µg/mL (≈ 4.86 µM)
- Antimicrobial susceptibility test result (category) [5]: S
- MIC [6]: 8 µg/mL (≈ 9.72 µM)
- Antimicrobial susceptibility test result (category) [6]: R
- MIC ([7]; Shigella flexneri, QY1): 2 µg/mL (≈ 2.43 µM)
- Antimicrobial susceptibility test result (category) [7]: S
- MIC [8, 15]: 4 µg/mL (≈ 4.86 µM)
- Antimicrobial susceptibility test result (category) [8]: S
- MIC [9, 16]: 64 µg/mL (≈ 77.8 µM)
- Antimicrobial susceptibility test result (category) [9]: R

Compound: Cc1noc(NS(=O)(=O)c2ccc(N)cc2)c1C [Sulfafurazole]
- MIC ([1]; Escherichia coli): 512 µg/mL (≈ 1920 µM)
- Antimicrobial susceptibility test result (category) [1]: R
- MIC ([2]; Escherichia coli, S1N1): 512 µg/mL (≈ 1920 µM)
- Antimicrobial susceptibility test result (category) [2]: R
- MIC ([3]; Escherichia coli, SN5): > 512 µg/mL
- Antimicrobial susceptibility test result (category) [3]: R
- MIC ([4]; Escherichia coli, W122): 512 µg/mL (≈ 1920 µM)
- Antimicrobial susceptibility test result (category) [4]: R
- MIC ([5]; Escherichia coli, W123): 512 µg/mL (≈ 1920 µM)
- Antimicrobial susceptibility test result (category) [5]: R
- MIC ([7]; Shigella flexneri, QY1): > 512 µg/mL
- Antimicrobial susceptibility test result (category) [7]: R
- MIC ([8]; Escherichia coli, W124): 512 µg/mL (≈ 1920 µM)
- Antimicrobial susceptibility test result (category) [8]: R
- MIC ([9]; Escherichia coli, W136): 512 µg/mL (≈ 1920 µM)
- Antimicrobial susceptibility test result (category) [9]: R

Compound: CN(C)[C@@H]1C(O)=C(C(N)=O)C(=O)[C@@]2(O)C(O)=C3C(=O)c4c(O)cccc4[C@@](C)(O)[C@H]3C[C@@H]12 [Tetracycline]
- Antimicrobial susceptibility test result (category) [1]: R
- MIC [2, 11]: 32 µg/mL (≈ 72 µM)
- Antimicrobial susceptibility test result (category) [2]: R
- MIC [3, 12]: 64 µg/mL (≈ 144 µM)
- Antimicrobial susceptibility test result (category) [3]: R
- MIC [4, 13]: 32 µg/mL (≈ 72 µM)
- Antimicrobial susceptibility test result (category) [4]: R
- MIC [5, 14]: 32 µg/mL (≈ 72 µM)
- Antimicrobial susceptibility test result (category) [5]: R
- MIC [6]: 32 µg/mL (≈ 72 µM)
- Antimicrobial susceptibility test result (category) [6]: R
- MIC ([7]; Shigella flexneri, QY1): 32 µg/mL (≈ 72 µM)
- Antimicrobial susceptibility test result (category) [7]: R
- Antimicrobial susceptibility test result (category) [8]: R
- Antimicrobial susceptibility test result (category) [9]: R

Compound: COc1cccc(OC)c1C(=O)N[C@@H]1C(=O)N2[C@@H]1SC(C)(C)[C@@H]2C(=O)O [methicillin]
- MIC [2, 11]: 128 µg/mL (≈ 336 µM)
- Antimicrobial susceptibility test result (category) [2]: R
- MIC [3, 12]: 64 µg/mL (≈ 168 µM)
- Antimicrobial susceptibility test result (category) [3]: R
- MIC [4, 13]: 64 µg/mL (≈ 168 µM)
- Antimicrobial susceptibility test result (category) [4]: R
- MIC [5, 14]: 128 µg/mL (≈ 336 µM)
- Antimicrobial susceptibility test result (category) [5]: R
- MIC [6]: 128 µg/mL (≈ 336 µM)
- Antimicrobial susceptibility test result (category) [6]: R
- MIC ([7]; Shigella flexneri, QY1): 32 µg/mL (≈ 84.1 µM)
- Antimicrobial susceptibility test result (category) [7]: R

Compound: PolymixinB
- Antimicrobial susceptibility test result (category) [1]: S
- MIC [1, 17]: 1 µg/mL
- Antimicrobial susceptibility test result (category) [2]: S
- MIC [2, 17]: 0.5 µg/mL
- Antimicrobial susceptibility test result (category) [3]: S
- MIC [3, 17]: 0.5 µg/mL
- Antimicrobial susceptibility test result (category) [4]: S
- MIC [4, 17]: 0.5 µg/mL
- Antimicrobial susceptibility test result (category) [5]: S
- MIC [5, 17]: 0.5 µg/mL
- Antimicrobial susceptibility test result (category) [7]: S
- MIC [7, 17]: 0.5 µg/mL
- Antimicrobial susceptibility test result (category) [8]: S
- MIC [8, 17]: 0.5 µg/mL
- Antimicrobial susceptibility test result (category) [9]: R
- MIC [9, 17]: 8 µg/mL

From PMC8698302, “An Antibacterial Peptide with High Resistance to Trypsin Obtained by Substituting D-Amino Acids for Trypsin Cleavage Sites” (Antibiotics, 2021)
